Results as given in patent US20260226060A1, “SALTS AND CRYSTALLINE FORMS OF COMPOUND A, METHODS OF PREPARATION, AND USES THEREOF” (SHENZHEN NEWDEL BIOTECH CO., LTD., priority 2023, published 2026).
Values after ≈ are worked out from the molar mass of the structure shown.

Tests used:
Type in all cases: physicochemical
[1] = Dynamic vapor sorption (DVS) hygroscopicity
Method: The water vapor sorption/desorption data of the samples were collected on a dynamic vapor sorption instrument (proUmid GmbH & Co. KG, Germany). Approximately 50-70 mg of sample was placed in a sample pan previously tared and the weight of the sample was measured accurately.

[2] = Rough solubility of free base starting material, visually evaluated by solvent addition
From the text: The rough solubility test of free base of compound A was visually evaluated by solvent addition, and the results were summarized in Table 1.

[3] = Solubility analysis in biological solvents (SGF, FaSSIF, FeSSIF) and water, with pH and XRPD of residual solid
Method: (§1) HPLC analysis was performed by using an Agilent HPLC 1260 series instrument and the HPLC methods used for solubility and stability determinations were shown in Tables 33 and 34, respectively.

[4] = Solid state stability at 60° C. (closed) and 40° C./75% RH (open), XRPD and HPLC purity
Method: (closed) and 40° C./75 RH (open) for 14 days, XRPD analysis and purity analysis were performed at various points of time, and solid-state stability was evaluated.
as §1

[5] = Short-term physical stability of anhydrous crystal forms (40° C./75% RH, open, 1 day; XRPD)
From the text: In addition to the mesylate crystalline form I, the other anhydrous crystalline forms were stable under high humidity conditions.

For `Cc1c(C#Cc2cnc3ccc(N4CCC(O)CC4)nn23)cccc1C(=O)Nc1cc(Cl)cc(C(F)(F)F)c1` [Free base crystalline form I], the “crystalline form after DVS analysis (XRPD)” value [1] was “remained unchanged”, the “hygroscopicity (DVS)” value [1] was “slightly hygroscopic” and the “DVS The weight gains by vapor sorption %” value ([1]; 80% RH) was 0.8%. For the same compound, the “DVS The weight gains by vapor sorption %” value ([1]; 90% RH) was 0.9%, the “DVS The weight gains by vapor sorption %” value ([1]; 90% RH, listed as free base crystalline form I) was roughly 0.9% and the Solubility ([2]; 2-methyltetrahydrofuran, organic solvent or mixture, thermodynamic from solid, 2-methyltetrahydrofuran, read-out: Solubility) was greater than 50000 µg/mL. The Solubility ([2]; 2-methyltetrahydrofuran, listed as starting material) was 50000 to 100000 µg/mL, the Solubility ([2]; acetone, organic solvent or mixture, thermodynamic from solid, acetone, read-out: Solubility) was 20000 to 50000 µg/mL (≈ 36.1 to 90.3 mM) and the Solubility ([2]; acetonitrile, organic solvent or mixture, thermodynamic from solid, acetonitrile, read-out: Solubility) was 1000 to 5000 µg/mL (≈ 1.81 to 9.03 mM). It also gave a Solubility ([2]; acetonitrile/water, 19/1 (v/v), organic solvent or mixture, thermodynamic from solid, acetonitrile/water, 19/1 (v/v), read-out: Solubility) of 3000 to 5000 µg/mL (≈ 5.42 to 9.03 mM), a Solubility ([2]; butanone, organic solvent or mixture, thermodynamic from solid, butanone, read-out: Solubility) greater than 50000 µg/mL and a Solubility ([2]; butanone, listed as starting material) of 50000 to 100000 µg/mL. For the same compound, the Solubility ([2]; dichloromethane, organic solvent or mixture, thermodynamic from solid, dichloromethane, read-out: Solubility) was 3000 to 5000 µg/mL (≈ 5.42 to 9.03 mM), the Solubility ([2]; ethanol, organic solvent or mixture, thermodynamic from solid, ethanol, read-out: Solubility) was 5000 to 20000 µg/mL (≈ 9.03 to 36.1 mM) and the Solubility ([2]; ethyl acetate, organic solvent or mixture, thermodynamic from solid, ethyl acetate, read-out: Solubility) was 5000 to 20000 µg/mL (≈ 9.03 to 36.1 mM). It also gave a Solubility ([2]; isopropanol, organic solvent or mixture, thermodynamic from solid, isopropanol, read-out: Solubility) of 20000 to 50000 µg/mL (≈ 36.1 to 90.3 mM), a Solubility ([2]; isopropyl acetate, organic solvent or mixture, thermodynamic from solid, isopropyl acetate, read-out: Solubility) of 5000 to 20000 µg/mL (≈ 9.03 to 36.1 mM) and a Solubility ([2]; methanol, organic solvent or mixture, thermodynamic from solid, methanol, read-out: Solubility) of 3000 to 5000 µg/mL (≈ 5.42 to 9.03 mM). For the same compound, the Solubility ([2]; methyl isobutyl ketone, organic solvent or mixture, thermodynamic from solid, methyl isobutyl ketone, read-out: Solubility) was 5000 to 20000 µg/mL (≈ 9.03 to 36.1 mM), the Solubility ([2]; methyl tert-butyl ether, organic solvent or mixture, thermodynamic from solid, methyl tert-butyl ether, read-out: Solubility) was 2000 to 5000 µg/mL (≈ 3.61 to 9.03 mM) and the Solubility ([2]; n-heptane, organic solvent or mixture, thermodynamic from solid, n-heptane, read-out: Solubility) was less than 1000 µg/mL. The Solubility ([2]; n-heptane, listed as starting material) was less than 1000 µg/mL, the Solubility ([2]; tetrahydrofuran, organic solvent or mixture, thermodynamic from solid, tetrahydrofuran, read-out: Solubility) was greater than 50000 µg/mL and the Solubility ([2]; tetrahydrofuran, listed as starting material) was greater than 100000 µg/mL. It also gave a Solubility ([2]; toluene, organic solvent or mixture, thermodynamic from solid, toluene, read-out: Solubility) of less than 1000 µg/mL, a Solubility ([2]; toluene, listed as starting material) of less than 1000 µg/mL and a Solubility ([2]; water, thermodynamic from solid, water, read-out: Solubility) of less than 1000 µg/mL. The Solubility ([2]; water, listed as starting material) was less than 1000 µg/mL, the “pH in solubility analysis” value ([3]; FaSSIF (medium pH 6.5), 0.5 h) was 6.4 and the “pH in solubility analysis” value ([3]; FaSSIF (medium pH 6.5), 2 h) was 6.3. The “pH in solubility analysis” value ([3]; FaSSIF (medium pH 6.5), 24 h) was 6.4, the “XRPD of residual solid in solubility analysis” value (“XRPD of residual solid” below) ([3]; FaSSIF, 0.5 h) was “unchanged” and the Solubility ([3]; FaSSIF, 0.5 h, 37° C., target 5 mg/mL) was 14 µg/mL (≈ 0.0253 mM). It also gave a Solubility ([3]; FaSSIF, 0.5 h, 37° C., target 5 mg/mL, listed as free base crystalline form I) of 14 µg/mL (≈ 0.0253 mM), a Solubility ([3]; FaSSIF, 2 h, 37° C., target 5 mg/mL) of 13 µg/mL (≈ 0.0235 mM) and a Solubility ([3]; FaSSIF, 2 h, 37° C., target 5 mg/mL, listed as free base crystalline form I) of 13 µg/mL (≈ 0.0235 mM). For the same compound, the “XRPD of residual solid” value ([3]; FaSSIF, 24 h) was “unchanged”, the Solubility ([3]; FaSSIF, 24 h, 37° C., target 5 mg/mL) was 11 µg/mL (≈ 0.0199 mM) and the “pH in solubility analysis” value ([3]; FeSSIF (medium pH 5.0), 0.5 h) was 5.0. The “pH in solubility analysis” value ([3]; FeSSIF (medium pH 5.0), 2 h) was 5.0, the “pH in solubility analysis” value ([3]; FeSSIF (medium pH 5.0), 24 h) was 5.1 and the “XRPD of residual solid” value ([3]; FeSSIF, 0.5 h) was “unchanged”. For the same compound, the Solubility ([3]; FeSSIF, 0.5 h, 37° C., target 5 mg/mL) was 181 µg/mL (≈ 0.327 mM), the Solubility ([3]; FeSSIF, 0.5 h, 37° C., target 5 mg/mL, listed as free base crystalline form I) was 181 µg/mL (≈ 0.327 mM) and the Solubility ([3]; FeSSIF, 2 h, 37° C., target 5 mg/mL) was 221 µg/mL (≈ 0.399 mM). For the same compound, the Solubility ([3]; FeSSIF, 2 h, 37° C., target 5 mg/mL, listed as free base crystalline form I) was 221 µg/mL (≈ 0.399 mM), the “XRPD of residual solid” value ([3]; FeSSIF, 24 h) was “unchanged” and the Solubility ([3]; FeSSIF, 24 h, 37° C., target 5 mg/mL) was 418 µg/mL (≈ 0.755 mM). The “pH in solubility analysis” value ([3]; SGF (medium pH 1.2), 0.5 h) was 1.3, the “pH in solubility analysis” value ([3]; SGF (medium pH 1.2), 2 h) was 1.4 and the “pH in solubility analysis” value ([3]; SGF (medium pH 1.2), 24 h) was 1.2. For the same compound, the “XRPD of residual solid” value ([3]; SGF, 0.5 h) was “unchanged”, the Solubility ([3]; SGF, 0.5 h, 37° C., target 5 mg/mL) was “<LOD” and the Solubility ([3]; SGF, 0.5 h, 37° C., target 5 mg/mL, listed as free base crystalline form I) was “<LOD/<LOD/”. For the same compound, the Solubility ([3]; SGF, 2 h, 37° C., target 5 mg/mL) was “<LOD”, the Solubility ([3]; SGF, 2 h, 37° C., target 5 mg/mL, listed as free base crystalline form I) was “<LOD/<LOD/” and the Solubility ([3]; SGF, 24 h, 37° C., target 5 mg/mL) was “<LOD”. The “XRPD of residual solid” value ([3]; SGF, after 2 h) was “amorphous”, the “Solid form of residual solids in solubility analysis” value ([3]; summary over water, SGF, FaSSIF, FeSSIF) was “remained unchanged in water, FaSSIF and FeSSIF” and the “pH in solubility analysis” value ([3]; water (medium pH 6.6), 0.5 h) was 6.6. The “pH in solubility analysis” value ([3]; water (medium pH 6.6), 2 h) was 6.5, the “pH in solubility analysis” value ([3]; water (medium pH 6.6), 24 h) was 6.4 and the Solubility ([3]; water, 0.5 h, 37° C., target 5 mg/mL) was “<LOD/<LOD/”. For the same compound, the Solubility ([3]; water, 2 h, 37° C., target 5 mg/mL) was “<LOD/<LOD/”, the Solubility ([3]; water, 24 h, 37° C., target 5 mg/mL) was “<LOD” and the “Purity in stability evaluation” value ([4]; 0 d) was 98.63 Area %. The “Solid state stability-14 days” value ([4]; 60° C./Closed and 40° C./75% RH (Open), 14 days) was “physically and chemically stable”, the “Purity in stability evaluation” value ([4]; 7 d-40° C./75% RH) was 98.60 Area % and the “XRPD in stability evaluation” value ([4]; 7 d-40° C./75% RH) was “unchanged”. For the same compound, the “Purity in stability evaluation” value ([4]; 7 d-60° C./capped) was 98.61 Area %, the “XRPD in stability evaluation” value ([4]; 7 d-60° C./capped) was “unchanged” and the “Purity in stability evaluation” value ([4]; 14 d-40° C./75% RH) was 98.61 Area %. For the same compound, the “XRPD in stability evaluation” value ([4]; 14 d-40° C./75% RH) was “unchanged”, the “Purity in stability evaluation” value ([4]; 14 d-60° C./capped) was 98.70 Area % and the “XRPD in stability evaluation” value ([4]; 14 d-60° C./capped) was “unchanged”.

In the case of `Cc1c(C#Cc2cnc3ccc(N4CCC(O)CC4)nn23)cccc1C(=O)Nc1cc(Cl)cc(C(F)(F)F)c1` [Compound A, N-(3-chloro-5-(trifluoromethyl)phenyl)-3-((6-(4-hydroxypiperidin-1-yl)imidazo [1,2-b]pyridazin-3-yl)ethynyl)-2-methylbenzamide], the Solubility ([3]; FeSSIF, 37 °C, pH 5, fessif, thermodynamic from solid, FeSSIF, read-out: solubility) is reported as 200 to 1900 µg/mL (≈ 0.361 to 3.43 mM) and the Solubility ([3]; SGF and water) is reported as “< LOD”.

With `Cc1c(C#Cc2cnc3ccc(N4CCC(O)CC4)nn23)cccc1C(=O)Nc1cc(Cl)cc(C(F)(F)F)c1` [L-camphor sulfonate crystalline form II] the “hygroscopicity (DVS)” value [1] was “slightly hygroscopic”, the “DVS The weight gains by vapor sorption %” value ([1]; 80% RH) was 0.8% and the “DVS The weight gains by vapor sorption %” value ([1]; 90% RH) was 1.2%. The “XPRD Results after short-term physical stability” value (“XPRD Results” below) [5] was “unchanged”.

With `Cc1c(C#Cc2cnc3ccc(N4CCC(O)CC4)nn23)cccc1C(=O)Nc1cc(Cl)cc(C(F)(F)F)c1` [Oxalate crystalline form I] the “XPRD Results” value [5] was “unchanged”.

With `Cc1c(C#Cc2cnc3ccc(N4CCC(O)CC4)nn23)cccc1C(=O)Nc1cc(Cl)cc(C(F)(F)F)c1` [Besylate crystalline form I] the “XPRD Results” value [5] was “unchanged”.

With `Cc1c(C#Cc2cnc3ccc(N4CCC(O)CC4)nn23)cccc1C(=O)Nc1cc(Cl)cc(C(F)(F)F)c1` [Mesylate crystalline form I] the “XPRD Results” value [5] was “new crystalline form” and the “stability of crystalline form under high humidity conditions” value [5] was “unstable”.
